Consider 14 compounds from PMC6332299, “Nonprenylated Xanthones from Gentiana lutea, Frasera caroliniensis, and Centaurium erythraea as Novel Inhibitors of Vascular Smooth Muscle Cell Proliferation” (Molecules, 2015).

Holding throughout (type): cell-based
Series [1] relates to rat aortic VSMC. The experiment in a line: Resazurin conversion assay of PDGF-induced VSMC proliferation. The conditions noted are these: for IC50 / activity at 30 µM: PDGF-BB 20 ng/mL; for IC50: concentrations 1, 3, 10, 30 µM, read-out: Inhibition of VSMC Proliferation, Resazurin Conversion Assay, IC50; for activity at 30 µM: 30 µM compound, residual proliferation relative to PDGF + 0.1% DMSO control = 1.00, means ± SD, n = 3, read-out: Inhibition of VSMC Proliferation, Resazurin Conversion Assay, at 30 µM (Relative to Solvent vehicle = 1.00, RU); for Anti-proliferative activity in rat aortic VSMC (in words): summary rating of the 14 xanthones. Here is the method:
With the aim to identify novel natural product inhibitors of VSMC proliferation, we tested several natural products (not shown) from our in-house compound collection on their ability to inhibit proliferation of rat aortic VSMC induced by the platelet-derived growth factor (PDGF), which is a mitogen strongly associated with aberrant proliferation in restenosis and leads to excessive proliferation of VSMC. After stimulation of the VSMC for 48 h with PDGF, the total number of metabolically active cells was measured by resazurin conversion. In this way, the xanthone gentisin (1,7-dihydroxy-3-methoxyxanthone (1)), previously isolated from the root material of G. lutea, a well-known medicinal bitter plant from the Gentianaceae family, was identified as a novel inhibitor of VSMC proliferation. […] Although an anti-proliferative effect of a prenylated xanthone has been described earlier, it represents a novel activity for simple, nonprenylated xanthones.
(§1) Rat aortic VSMC were acquired from Lonza and grown in Dulbecco’s modified essential medium (DMEM)–F12 (1:1) supplemented with 20% fetal calf serum (FCS) and gentamycin. For all experiments, cells were seeded in 96-well plates (5 × 10^3 cells/well) and incubated for 24 h. Subsequently, cells were serum-starved for another 24 h to make them quiescent.
Quiescent VSMC were pre-treated with the studied test compounds, G. lutea root extract, or vehicle (0.1% DMSO) for 30 min and then stimulated with PDGF-BB (20 ng/mL) for 48 h. The number of metabolically active VSMC was measured by resazurin conversion. Therefore, after washing the cells with phosphate-buffered saline (PBS), they were incubated in serum-free medium containing resazurin (10 µg/mL) for 2 h. Measurement of total metabolic activity was performed by monitoring the increase in fluorescence at 590 nm using an excitation wavelength of 535 nm in a 96-well plate reader (Tecan GENios Pro, Grödig, Austria). The assay was validated using the VSMC proliferation inhibitor taxol (IC50 = 0.1 µM [21]).
Background: Resazurin is reduced to fluorescent resorufin, in cell work by metabolically active cells.

The test system of series [2] is rat aortic VSMC. The experiment in a line: BrdU incorporation assay (DNA synthesis) in PDGF-stimulated VSMC. As to conditions: PDGF-BB 20 ng/mL, BrdU added after 2 h, read after 22 h, read-out: Inhibition of VSMC Proliferation, BrdU Assay, IC50. As for the experimental part: In this assay, the DNA synthesis in dividing VSMC is measured by quantification of BrdU incorporation into newly synthesized DNA.
as §1
Quiescent VSMC were pre-treated with test compounds or vehicle (0.1% DMSO) for 30 min and then stimulated with PDGF-BB (20 ng/mL) for 2 h. Subsequently, BrdU was added to estimate de novo DNA synthesis in VSMC [29, 30]. After 22 h, the BrdU incorporation was determined according to the instructions of the manufacturer (Roche Diagnostics, Vienna, Austria).

The subject of series [3] is rat aortic VSMC. The experiment in a line: Assessment of cytotoxicity by LDH release. As to conditions: concentration range up to 30 µM; PDGF-BB 20 ng/mL, 24 h. Here is the method:
Loss of VSMC membrane integrity as a sign for cell death was quantified by measuring the release of the soluble cytosolic protein LDH.
as §1
Quiescent VSMC were pre-treated with test compounds, positive control (digitonin 100 µg/mL, corresponding to 81 µM), or vehicle (0.1% DMSO) for 30 min and then stimulated with PDGF-BB (20 ng/mL) for 24 h. Loss of cell membrane integrity as an indicator for cell death was quantified by measuring the release of LDH [31, 32]. Therefore, the LDH activity of the cell supernatant was determined. To estimate total LDH, identically treated samples were incubated in the presence of 1% Triton X-100 for 45 min. […] The enzyme reaction was stopped by oxymate (1.78 mg/mL) and the absorbance was read at 490 nm. The percentage of extracellular LDH enzyme activity was calculated to estimate potential effects of the samples on cell viability.
Background: LDH leaks from cells whose membrane has failed.

[4] abbreviates: Rattus norvegicus, VSMC, 48 h, 48 h.

Take `COc1cc(O)c2c(=O)c3cc(O)ccc3oc2c1` [Compound 1, 1,7-dihydroxy-3-methoxyxanthone]: the “Inhibition of PDGF-induced VSMC proliferation at 30 µM (in words)” value in series [1] (30 µM, 48 h, resazurin conversion) was “completely inhibited PDGF-induced proliferation to the basal level”. The values for the IC50 in series [1] (48 h), in series [1] (setting [4]) and in series [2] were 7.84 µM, 7.8 µM and 5.74 µM, respectively. The activity at 30 µM in series [1] (Rattus norvegicus, VSMC, 48 h) was 33.5 ± 17.5%. The “Anti-proliferative activity in rat aortic VSMC (in words)” value (from here on “Anti-proliferative activity”) in series [1] was “most potent compound”. In addition, the “Cytotoxicity (LDH release in the culture medium)” value (“Cytotoxicity” for short) in series [3] was “not cytotoxic”.

`COc1ccc2oc3cc(O)cc(O)c3c(=O)c2c1` [Compound 2, 1,3-dihydroxy-7-methoxyxanthone]: the IC50 in series [1] (setting [4]) stood at 27 µM. Also, the activity at 30 µM in series [1] (Rattus norvegicus, VSMC, 48 h) came to 59.3 ± 8.4%. Besides, the “Anti-proliferative activity” value in series [1] is recorded as “moderately active”.

Turning to `COc1cc2oc3c(OC)cccc3c(=O)c2c(O)c1OC` [Compound 3, 1-hydroxy-2,3,5-trimethoxyxanthone], the activity at 30 µM in series [1] (Rattus norvegicus, VSMC, 48 h) was determined as 83.2 ± 10.4%. For the same compound, the “Anti-proliferative activity” value in series [1] was “weakly active or inactive”.

For the compound `COc1c(OC)c(O)c2c(=O)c3cccc(OC)c3oc2c1OC` [Compound 4, 1-hydroxy-2,3,4,5-tetramethoxyxanthone], the IC50 stood at 11.2 µM in series [1] (setting [4]) and 24.5 µM in series [2]. Moreover, the activity at 30 µM in series [1] (Rattus norvegicus, VSMC, 48 h) was found to be 21.6 ± 5.8%. Further, the “Anti-proliferative activity” value in series [1] was “potent inhibitory activity”. For the same compound, the “Cytotoxicity” value in series [3] is recorded as “not cytotoxic”.

For the compound `COc1ccc2oc3c(OC)c(OC)c(OC)c(O)c3c(=O)c2c1` [Compound 5, 1-hydroxy-2,3,4,7-tetramethoxyxanthone], in series [1] (Rattus norvegicus, VSMC, 48 h), the activity at 30 µM came out at 75.4 ± 1.4%. In addition, the “Anti-proliferative activity” value in series [1] was “weakly active or inactive”.

In the case of `COc1cc(O)c2c(=O)c3c(O)ccc(OC)c3oc2c1` [Compound 6, 1,8-dihydroxy-3,5-dimethoxyxanthone], the figures for the IC50 in series [1] (setting [4]) and in series [2] were 12.5 µM and 7.37 µM, respectively. Also, the activity at 30 µM in series [1] (Rattus norvegicus, VSMC, 48 h) is 51.4 ± 6.7%. In addition, the “Anti-proliferative activity” value in series [1] was “potent inhibitory activity”. Also, the “Cytotoxicity” value in series [3] is listed as “not cytotoxic”.

On to `COc1cc(O)c2c(=O)c3c(O)c(OC)ccc3oc2c1` [Compound 7, 1,8-dihydroxy-3,7-dimethoxyxanthone], for which the IC50 was 10.2 µM in series [1] (setting [4]) and 7.53 µM in series [2]. In series [1] (Rattus norvegicus, VSMC, 48 h), the activity at 30 µM came out at 0.2 ± 1.4%. For the same compound, the “Anti-proliferative activity” value in series [1] is on record as “potent inhibitory activity”. The “Cytotoxicity” value in series [3] is on record as “not cytotoxic”.

As to `COc1cc(O)c2c(=O)c3cccc(O)c3oc2c1` [Compound 8, 1,5-dihydroxy-3-methoxyxanthone], the IC50 in series [1] (setting [4]) was 29.5 µM. In series [1] (Rattus norvegicus, VSMC, 48 h), the activity at 30 µM turned out to be 71.3 ± 6.1%. In addition, in series [1], the “Anti-proliferative activity” value was “moderately active”.

Turning to `COc1cc(O)c2c(=O)c3c(O)ccc(O)c3oc2c1` [Compound 9, 1,5,8-trihydroxy-3-methoxyxanthone], in series [1] (Rattus norvegicus, VSMC, 48 h), the activity at 30 µM amounted to 78.3 ± 3.1%.

Turning to `COc1cc(O)c2c(=O)c3ccc(O)c(OC)c3oc2c1` [Compound 10, 1,6-dihydroxy-3,5-dimethoxyxanthone], the activity at 30 µM in series [1] (Rattus norvegicus, VSMC, 48 h) was 98.7 ± 2.5%.

With `COc1c(O)cc2oc3c(OC)c(O)ccc3c(=O)c2c1O` [Compound 11, 1,3,6-trihydroxy-2,5-dimethoxyxanthone], the activity at 30 µM in series [1] (Rattus norvegicus, VSMC, 48 h) came to 94.2 ± 4.2%.

`COc1cc(O)c2c(=O)c3c(OC)c(OC)c(O)c(OC)c3oc2c1` [Compound 12, 1,6-dihydroxy-3,5,7,8-tetramethoxyxanthone]: the activity at 30 µM in series [1] (Rattus norvegicus, VSMC, 48 h) is 86.2 ± 6.8%.

For `COc1cc(O)c2c(=O)c3c(O)c(OC)c(O)c(OC)c3oc2c1` [Compound 13, 1,6,8-trihydroxy-3,5,7-trimethoxyxanthone], in series [1] (Rattus norvegicus, VSMC, 48 h), the activity at 30 µM worked out at 84.6 ± 9.6%.

Consider `COc1c(O)cc2oc3c(O)cccc3c(=O)c2c1O` [Compound 14, 1,3,5-trihydroxy-2-methoxyxanthone], for which, in series [1] (Rattus norvegicus, VSMC, 48 h), the activity at 30 µM is 86.2 ± 10.4%.
